Measured values published in ChEMBL document CHEMBL2073832, “Induction of cMrp/cMoat gene expression by cisplatin, 2-acetylaminofluorene, or cycloheximide in rat hepatocytes” (Hepatology, 1997).

Target: ATP-binding cassette sub-family C member 2 (Rattus norvegicus, UniProt Q63120)
Experiment: TP_TRANSPORTER: Northern blot from primary hepatocytes
Type: functional, cell-based, Hepatocyte

ATP-binding cassette sub-family C member 2, sequence (Q63120 whole entry): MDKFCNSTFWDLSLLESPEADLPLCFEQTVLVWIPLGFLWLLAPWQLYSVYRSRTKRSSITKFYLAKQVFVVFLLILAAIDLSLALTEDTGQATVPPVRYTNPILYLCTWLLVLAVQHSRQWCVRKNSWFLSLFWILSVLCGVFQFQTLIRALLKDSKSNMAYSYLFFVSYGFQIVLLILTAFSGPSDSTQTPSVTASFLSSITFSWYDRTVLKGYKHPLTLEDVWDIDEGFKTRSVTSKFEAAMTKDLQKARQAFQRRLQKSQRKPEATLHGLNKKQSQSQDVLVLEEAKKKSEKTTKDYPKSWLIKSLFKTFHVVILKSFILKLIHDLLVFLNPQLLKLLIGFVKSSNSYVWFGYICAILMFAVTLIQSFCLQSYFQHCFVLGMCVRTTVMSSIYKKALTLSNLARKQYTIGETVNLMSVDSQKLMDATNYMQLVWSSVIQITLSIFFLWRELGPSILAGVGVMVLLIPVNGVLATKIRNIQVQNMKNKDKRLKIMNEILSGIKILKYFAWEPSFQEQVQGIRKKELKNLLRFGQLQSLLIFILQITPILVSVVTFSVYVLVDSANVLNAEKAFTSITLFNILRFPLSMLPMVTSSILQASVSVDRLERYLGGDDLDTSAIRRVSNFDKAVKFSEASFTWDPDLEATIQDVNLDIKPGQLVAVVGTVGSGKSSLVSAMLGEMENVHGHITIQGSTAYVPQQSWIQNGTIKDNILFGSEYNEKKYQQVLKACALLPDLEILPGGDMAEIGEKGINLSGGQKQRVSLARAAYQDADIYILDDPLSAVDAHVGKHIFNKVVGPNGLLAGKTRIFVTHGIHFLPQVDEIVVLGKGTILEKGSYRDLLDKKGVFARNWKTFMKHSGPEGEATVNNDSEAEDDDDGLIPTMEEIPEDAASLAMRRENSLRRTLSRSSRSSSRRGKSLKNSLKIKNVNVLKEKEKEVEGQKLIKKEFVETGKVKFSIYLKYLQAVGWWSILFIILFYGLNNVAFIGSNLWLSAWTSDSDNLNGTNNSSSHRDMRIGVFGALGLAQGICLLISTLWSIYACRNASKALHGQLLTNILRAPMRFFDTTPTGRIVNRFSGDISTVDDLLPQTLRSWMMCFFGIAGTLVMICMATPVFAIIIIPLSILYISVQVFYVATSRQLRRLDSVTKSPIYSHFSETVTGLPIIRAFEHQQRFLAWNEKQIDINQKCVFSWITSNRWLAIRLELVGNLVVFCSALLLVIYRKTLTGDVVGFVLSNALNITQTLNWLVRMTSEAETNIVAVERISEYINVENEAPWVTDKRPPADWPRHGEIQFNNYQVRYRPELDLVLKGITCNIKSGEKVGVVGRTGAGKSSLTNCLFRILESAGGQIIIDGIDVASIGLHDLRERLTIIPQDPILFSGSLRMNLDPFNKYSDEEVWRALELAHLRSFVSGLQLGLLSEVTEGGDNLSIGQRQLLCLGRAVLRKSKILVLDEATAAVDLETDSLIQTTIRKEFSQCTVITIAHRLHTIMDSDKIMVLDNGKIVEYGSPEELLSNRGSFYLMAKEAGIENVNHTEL

## C[C@@H]1C[C@@H]([C@H](O)CC2CC(=O)NC(=O)C2)C(=O)[C@@H](C)C1 [CYCLOHEXIMIDE]
  Activity: inducer [+]
